Here are results for 3 compounds from US20090149484A1, “QUINAZOLIN-4-ONE DERIVATIVES, PROCESS FOR THEIR PREPARATION AND PHARMACEUTICAL COMPOSITIONS CONTAINING THEM” (ASTRAZENECA AB, priority 2006, published 2009).

T1 sequence (P15056 whole entry V600E): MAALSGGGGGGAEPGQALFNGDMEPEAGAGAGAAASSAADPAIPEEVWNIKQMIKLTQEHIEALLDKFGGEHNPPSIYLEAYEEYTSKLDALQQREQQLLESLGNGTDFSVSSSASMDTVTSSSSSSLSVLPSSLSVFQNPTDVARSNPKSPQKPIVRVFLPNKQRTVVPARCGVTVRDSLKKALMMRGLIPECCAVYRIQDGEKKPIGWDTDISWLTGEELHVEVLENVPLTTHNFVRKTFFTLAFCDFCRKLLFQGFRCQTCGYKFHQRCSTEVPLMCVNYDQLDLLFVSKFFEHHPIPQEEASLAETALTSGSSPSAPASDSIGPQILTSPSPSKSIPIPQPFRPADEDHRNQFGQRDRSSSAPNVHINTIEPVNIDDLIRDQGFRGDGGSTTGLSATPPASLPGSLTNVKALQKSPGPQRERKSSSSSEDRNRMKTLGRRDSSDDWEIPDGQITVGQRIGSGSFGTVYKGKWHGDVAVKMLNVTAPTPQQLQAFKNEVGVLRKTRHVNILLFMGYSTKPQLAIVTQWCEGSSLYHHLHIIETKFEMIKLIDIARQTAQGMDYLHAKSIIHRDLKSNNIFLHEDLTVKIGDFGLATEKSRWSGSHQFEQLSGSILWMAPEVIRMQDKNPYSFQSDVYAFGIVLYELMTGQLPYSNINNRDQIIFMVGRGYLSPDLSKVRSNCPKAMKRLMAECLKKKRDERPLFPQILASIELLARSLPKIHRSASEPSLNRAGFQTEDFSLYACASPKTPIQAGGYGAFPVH

The test has as its target T1, His-tagged Mutant B-Raf (V600E) enzyme (MT B-Raf) (Homo sapiens, UniProt P15056, V600E).
T1 construct: purified full length His-tagged Mutant B-Raf (V600E) enzyme; made in house; host or cells: insect cells
Description: B-Raf in-vitro AlphaScreen assay. In kind it is biochemical. Particulars: phosphorylation of biotinylated HIS-MEK-AVI, 0.12 nM MT B-Raf, 24 μM ATP in mix. On the procedure: B-Raf in-Vitro AlphaScreen Assay
Activity of purified full length His-tagged Mutant B-Raf (V600E) enzyme (MT B-Raf) was determined in-vitro using an Amplified Luminescent Proximity Homogeneous Assay (ALPHA)(Perkin Elmer, Mass.), which measures phosphorylation of the MT B-Raf substrate, biotinylated HIS-MEK-AVI (PLAZA internal database, construct #pAZB0141), as described below. MT B-Raf was expressed in insect cells and affinity purified by Ni^+2 agarose followed by Q-Sepharose chromatography. Typical yield was 1.08 mg/ml at >90% purity. The phosphorylation of the MT B-Raf substrate in the presence and absence of the compound of interest was determined. Briefly, 5 μl of enzyme/substrate/adenosine triphosphate (ATP) mix consisting of 0.12 nM MT B-Raf, 84 nM biotinylated HIS-MEK-AVI, and 24 μM ATP in 1.2× buffer was preincubated with 2 ul of compound for 20 minutes at 25° C. Reactions were initiated with 5 μl of Metal mix consisting of 24 mM MgCl2 in 1.2× buffer and incubated at 25° C. for 60 minutes and reactions were stopped by addition of 5 μl of Detection mix consisting of 20 mM HEPES, 102 mM ethylenediamine tetraacetic acid, 1.65 mg/ml BSA, 136 mM NaCl, 3.4 nM Phospho-MEK1/2 (Ser217/221) antibody (Catalog #9121, Cell Signaling Technology, MA), 40 μg/ml Streptavidin donor beads (Perkin Elmer, MA, Catalog #6760002), and 40 μg/ml Protein A acceptor beads (Perkin Elmer, MA, Catalog #6760137). Plates were incubated at 25° C. for 18 hours in the dark. Phosphorylated substrate was detected by an EnVision plate reader (Perkin Elmer, MA) 680 nm excitation, 520-620 nm emission. Data was graphed and IC50s calculated using Excel Fit (Microsoft).
For orientation: Bead proximity is the source of the signal in Alpha formats.
With `Cc1cc(NC(=O)Nc2ccc(Cl)c(C(F)(F)F)c2)ccc1Oc1ccc2ncn(C)c(=O)c2c1` [Example 3, N-[4-Chloro-3-(trifluoromethyl)phenyl]-N′-{3-methyl-4-[(3-methyl-4-oxo-3,4-dihydroquinazolin-6-yl)oxy]phenyl}urea], half-maximal inhibition (IC50) was put at 205 nM.
For `Cn1cnc2ccc(Oc3ccc(NC(=O)Nc4ccc(Cl)c(C(F)(F)F)c4)cc3)cc2c1=O` [Example 1, N-[4-Chloro-3-(trifluoromethyl)phenyl]-N′-{-4-[(3-methyl-4-oxo-3,4-dihydroquinazolin-6-yl)oxy]phenyl}urea], half-maximal inhibition (IC50) required 287 nM.
As to `Cn1cnc2ccc(Oc3ccc(NC(=O)Nc4cccc(C(F)(F)F)c4F)cc3)cc2c1=O` [Example 7, N-[2-Fluoro-3-(trifluoromethyl)phenyl]-N′-{4-[(3-methyl-4-oxo-3,4-dihydroquinazolin-6-yl)oxy]phenyl}urea], the half-maximal inhibitory concentration (IC50) (commonly the point on the concentration scale where inhibition reaches its midpoint) came to 340 nM.
